# Measurements published in patent US20180369219A1, “USING DABIGATRAN TO TREAT PANCREATITIS” (Mayo Foundation for Medical Education and Research, priority 2017, published 2018).
# Legend:
# WT mice = test: Prevention of caerulein-induced acute pancreatitis in WT mice; type: in vivo, mouse; conditions: evaluated 24 h after first caerulein dose, Dabigatran 200 mg/kg×2, Camostat 300 mg/kg×2
# Protocol: (§1) The secretagogue overstimulation model of experimental pancreatitis with caerulein, is a commonly used AP model (Zhan et al., Gastrointestinal Liver Physiology, 311:G343-55 (2016)). This model was accomplished by repeated intraperitoneal (ip) injections of caerulein (100 μg/kg/hour) once per hour (Huang et al., Gastroenterology, 144:202-10 (2013)).
# Camostat mesilate (Santa Cruz), Dabigatran etexilate mesylate (a prodrug for Dabigatran, TRC Canada), and Ximelagatran (a prodrug for Melagatran, Sigma-Aldrich) were dissolved in 10% β-Cyclodextrin (Sigma-Aldrich). […]
# Pancreas edema, serum amylase, and histology were evaluated as described elsewhere (Gaiser et al., Gut, 60:1379-88 (2011); Huang et al., Gastroenterology, 144:202-10 (2013); and Daniluk et al., J. Clin. Invest., 122:1519-28 (2012)).
# The effect of Dabigatran on experimental pancreatitis in WT mice was evaluated. Dabigatran and Camostat were administrated by oral gavage two hours before the initiation of AP by six hourly injections of caerulein (FIG. 1A). Twenty-four hours after the first dose of caerulein, the severity of pancreatitis was evaluated.
# PRSS1R122H mice [1] = test: Prevention of caerulein-induced pancreatitis in mouse model of human hereditary pancreatitis (PRSS1R122H); type: in vivo; conditions: Dabigatran 200 mg/kg×2, Camostat 300 mg/kg×2
# Protocol: as §1
# A model of human hereditary pancreatitis (HP) was developed by using a bacterial artificial chromosome (BAC, clone RP11-701D14) harboring the full-length human PRSS1 gene containing an intact PRSS1 promoter, all exons and introns, and the 3′ untranslated region for faithful recapitulation of the gene's expression. An R122H point mutation was introduced by two rounds of genetic targeting using Galk-mediated recombineering (PRSS1^R122H) (Warming et al., Nucleic Acids Research, 33:e36 (2005)). This transgene expressed PRSS1^R122H at ˜50% of the endogenous human PRSS1 protein level as detected by Western blot (WB) and real-time RT-PCR. Taking into account that the PRSS1^R122H mutation was heterozygous, and that mutated PRSS1 constituted 50% of the total PRSS1 in human HP, this model does expressPRSS1^R122H at a physiologically relevant level. In this mouse model, spontaneous AP and CP were not observed. However, these mice developed more severe AP following the induction of AP with caerulein injection. More importantly, all of the PRSS1^R122H mice, but none of the WT mice, developed CP with an observed histopathology similar to that seen in human HP (Singhi et al., Am. J. Surg. Path., 38:346-53 (2014)). Therefore, this model faithfully recapitulates the histological changes observed during human HP (Singhi et al., Am. J. Surg. Path., 38:346-53 (2014)). […]
# (§2) Pancreas edema, serum amylase, and histology were evaluated as described elsewhere (Gaiser et al., Gut, 60:1379-88 (2011); Huang et al., Gastroenterology, 144:202-10 (2013); and Daniluk et al., J. Clin. Invest., 122:1519-28 (2012)). […]
# mutant trypsinogen mice = test: Prevention of pancreatitis in mouse model expressing active trypsin (PACE-trypsinogen); type: in vivo; conditions: pretreated two hours prior to caerulein and seven hours after final caerulein injection, Dabigatran 200 mg/kg×2, Camostat 300 mg/kg×2, Ximelagatran 40 mg/kg×2
# Protocol: as §1
# A PACE-activated trypsinogen model in which the original enteropeptidase cleavage site (DDDDK) was replaced by a PACE cleavage site (RTKR), using site-specific mutagenesis of the wild type rat trypsinogen cDNA, was produced (Ji et al., J. Biol. Chem., 284:17488-98 (2009)). PACE, paired basic amino acid cleaving enzyme (also called furin), is a mammalian propeptide-processing endoprotease that is present in the trans-Golgi network of virtually all cells. To target expression of PACE-trypsinogen specifically to pancreatic acinar cells, conditional LGL (loxP-GFP-stop-loxP)-PACE-trypsinogen transgenic mice were bred with full-length, acinar specific, elastase promoter-regulated Cre transgenic mice. […]
# as §2
# PRSS1R122H mice [2] = test: Therapeutic administration after AP induction in PRSS1R122H mice, progression to chronic pancreatitis; type: in vivo, mouse; conditions: administered four hours after AP induction by caerulein, treated for additional five days, Dabigatran 200 mg/kg Bid, Camostat 300 mg/kg Bid
# Protocol: as §1
# A model of human hereditary pancreatitis (HP) was developed by using a bacterial artificial chromosome (BAC, clone RP11-701D14) harboring the full-length human PRSS1 gene containing an intact PRSS1 promoter, all exons and introns, and the 3′ untranslated region for faithful recapitulation of the gene's expression. An R122H point mutation was introduced by two rounds of genetic targeting using Galk-mediated recombineering (PRSS1^R122H) (Warming et al., Nucleic Acids Research, 33:e36 (2005)). This transgene expressed PRSS1^R122H at ˜50% of the endogenous human PRSS1 protein level as detected by Western blot (WB) and real-time RT-PCR. […]
# as §2
# [3] = tested on: human having pancreatitis; test: Treating a human identified as having pancreatitis (Example 2); type: in vivo; conditions: 112 mg dabigatran or 150 mg dabigatran etexilate at least twice a day for one to three weeks
# Protocol: A human identified as having pancreatitis is administered 112 mg of dabigatran or 150 mg of dabigatran etexilate at least twice a day for one to three weeks.
Structure (SMILES),pancreatic edema (pancreas/body weight ratio) (WT mice; oral gavage two hours before six hourly caerulein injections (100 μg/kg×6)),serum amylase levels (WT mice; oral gavage two hours before six hourly caerulein injections),pancreatic edema (pancreas/body weight ratio) (PRSS1R122H mice [1]; pretreatment before caerulein (100 μg/kg×6)),pancreatic histology (PRSS1R122H mice [1]; pretreatment before caerulein),serum amylase levels (PRSS1R122H mice [1]; pretreatment before caerulein),"development of severe AP (pancreas edema, serum amylase) (mutant trypsinogen mice)","progression of AP to CP (pancreas/body weight ratio, histology) (PRSS1R122H mice [2])",severity of the pancreatitis [3]
"CN(C)C(=O)COC(=O)Cc1ccc(OC(=O)c2ccc(NC(=N)N)cc2)cc1 [Camostat, Camostat mesilate]",moderately reduce,no significant effect,only slightly improved,only slightly improved,only slightly improved,no ability to prevent the development of severe AP,no positive effects on preventing the development of CP,–
CCCCCCOC(=O)N=C(N)c1ccc(NCc2nc3cc(C(=O)N(CCC(=O)OCC)c4ccccn4)ccc3n2C)cc1 [dabigatran etexilate],–,–,–,–,–,–,–,reduction in the severity of the pancreatitis
